The values that follow come from patent publication US9012178B2, “Dipeptides to enhance yield and viability from cell cultures” (Amgen Inc., priority 2010, dated 2015).

In brackets after ≈: the same amount, converted by molar mass. Where a SMILES comes first, the peptide text is derived from it.

The nature of series [1]: Solubility of tyrosine-containing dipeptides.
For series [2] the following is noted: reference #1; cited from earlier work.
In the next series the test system is CHO cell line A. The series is described as follows: Fed-batch shake flask production culture in serum-free defined medium: titer and viability. It is filed as cell-based, Chinese hamster. As to conditions: culture period 13 to 14 days. As to the method:
(§1) Materials and Methods: Dipeptides were purchased from Bachem (Torrance, Calif.). Each dipeptide was dissolved in water for preparation of concentrated stock solution (100 mg/mL), followed by sterile filtration using Spin-X® filter unit (Corning Inc., Corning, N.Y.).
(§2) On Day 0, prior to inoculation of production cell lines, appropriate volumes of concentrated dipeptide stock solution were added to serum-free defined production medium to bring the final dipeptide concentration at 0.5-2.0 g/L. For controls, the same volume of water was added. Cells were inoculated at 5×10^5 cells/mL with the final culture volume of 50 mL in 250 mL flasks. The shaker flasks cultures were grown in the incubator at 36° C., with 5% CO2 and agitation rate of 160 rpm.
(§3) Cultures were fed with bolus defined feed media on Days 3, 6, and 8 with the feed volume of 5-6% on Day 3, 9% on Day 6 and 9% on Day 8. Cultures were stopped and harvested on Day 11. However, if the culture viability on Day 11 was >70%, culture duration was extended beyond day 11 by introducing 4th feed on Day 11 and 5th feed on day 13 if necessary. Feed volume on Day 11 ranged from 5% to 8%, depending on the culture performance. Day 13 feed ranged from 2.5% to 3.0%. Glucose was fed as needed with typical target concentration of 7-8 g/L.
(§4) On selective days during the production run, small volumes of cultures were taken out to assess viable cell density and % viability using the CEDEX cell counter (Roche Innovatis AG). Titer was also determined on collected samples, using the high-throughput HPLC analytical method.
Materials and Methods: CHO cell line A was cultured as in Example 2. The effect of dipeptide Ala-His (added at 1 g/L) was compared to no added dipeptide (control) and dipeptide His-Gly. The culture period was 13 to 14 days, at which point titer and viability were assessed.

The subject of a further series is CHO cell line D. As to the kind of experiment: 6-day batch culture in serum-free defined production medium: titer and viability. It is filed as cell-based, Chinese hamster. As to conditions: 1 to 4 g/L, 6 days batch culture; for titer: over the negative control. As to the method: Materials and Methods: CHO cell line D, which produces a fully human recombinant antibody, was used for this experiment. Cells were inoculated at 2×10^6 cells/mL with a final culture volume of 2.0 mL into serum-free defined production medium. Experimental samples contained the dipeptides His-Glu, Glu-His, His-Ser, and His-Gln from 1 to 4 g/L. Control wells were set up containing either no added dipeptide as a negative control, or containing peptone at 10 g/L as a positive control. The cultures were incubated as a batch culture for 6 days, at which point the cells were harvested and titer and viability determined.

Another series deals with CHO cells. The series is described as follows: Recombinant protein expression from CHO cells in chemically defined medium (summary statements). It is filed as cell-based, Chinese hamster. Conditions: two different CHO cell lines expressing two different recombinant antibodies.
Another series has as its system CHO cell line C. The series is described as follows: Fed-batch shake flask production culture in serum-free defined medium: titer, viability, growth, metabolic profiles. It is filed as cell-based, Chinese hamster. As to conditions: for day 11 titer: cell line C, culture period 11 days (Example 4, FIG. 5). Here is the method: as §1, §2, §3, §4
Materials and Methods: CHO cell line C was cultured as in Example 2. The dipeptides tested were Tyr-Lys, Thr-Phe, His-Gly, Tyr-Ala, Gly-His, Tyr-His, Tyr-Val, and a combination of Tyr-His and Thr-Phe. The culture period was 11 days, at which point titer and viability were assessed.
Materials and Methods: CHO cell line C was used for this experiment, and cultured as in Example 2. Titer, viability, viable cell density, specific productivity, and cell diameter were determined each day from day 6 to 13 or 14 of cell culture. Tyr-His dipeptide was tested at 0.5 g/L and 1 g/L, and compared to the addition of no dipeptide.

Where [3] appears, read: supplement by itself in serum-free, peptone-free production medium.

Regarding `CSCC[C@H](N)C(=O)N[C@@H](Cc1ccc(O)cc1)C(=O)O` [Met-Tyr] (H-Met-Tyr-OH; N-terminus and C-terminus assumed), the Solubility tested result in series [1] is reported as “Not soluble”.

`N[C@@H](Cc1ccc(O)cc1)C(=O)N[C@@H](Cc1c[nH]cn1)C(=O)O` [Tyr-His] (H-Tyr-His-OH; N-terminus and C-terminus assumed): the Solubility tested result in series [1] is given as “readily soluble”. For the same molecule, the “Solubility (g/L)- ref. #1” value in series [2] was 100 g/L (≈ 314 mM).

Take `NCCCC[C@H](NC(=O)[C@@H](N)Cc1ccc(O)cc1)C(=O)O` [Tyr-Lys] (H-Tyr-Lys-OH; N-terminus and C-terminus assumed): the Solubility tested result in series [1] is “readily soluble”. For the same molecule, the “Solubility (g/L)- ref. #1” value in series [2] is given as 81 g/L (≈ 262 mM).

As to Ala-His, in the series with CHO cell line A (Ala-His added at 1 g/L), the viability result is “maintain increased viability”. Moreover, in the series on CHO cell line A (Ala-His added at 1 g/L, vs control), the titer entry is listed as “also improved titer, but not as much as His-Gly”.

With Glu-His, in the series with CHO cell line D, the viability entry is “significantly improved” and the titer entry is “not significantly increased”.

On to Gly-His, for which the “productivity and culture performance” value in the series with CHO cells is “negative effect”. The “day 11 titer” value in the series on CHO cell line C was “adversely affected titer”.

His-Gln: in the series on CHO cell line D, the viability entry is listed as “significantly improved” and the titer entry is on record as “not significantly increased”.

As for His-Glu, in the series on CHO cell line D, the viability entry was “significantly improved” and the titer result is “not significantly increased”.

Take His-Gly: in the series on CHO cell line A (Ala-His added at 1 g/L), the viability entry was “better at maintaining viability”. The “titer improvement as compared to control” value with CHO cell line A was “more than 10%”. Besides, in the series on CHO cells, the “productivity and culture performance” value was “improve productivity and culture performance”. Further, the “day 11 titer” value in the series with CHO cell line C is listed as “moderately improved titer”.

Turning to His-Ser, in the series with CHO cell line D, the viability result is “significantly improved” and the titer entry is “not significantly increased”.

In the case of Thr-Phe, the “day 11 titer” value in the series with CHO cell line C is reported as “little to no effect”. In the series on CHO cell line C (setting [3]), the recombinant protein production entry is on record as “little to no effect” and the viability entry is given as “little to no effect”.

For the molecule Tyr-Ala, in the series on CHO cell line C, the “day 11 titer” value was “significantly improved titer”.

With Tyr-Val, the “day 11 titer” value with CHO cell line C was “significantly improved titer”.
